Results from ChEMBL document CHEMBL1130416, “Synthesis and biological activities of (R)-5,6-dihydro-N,N-dimethyl-4H-imidazo[4,5,1-ij]quinolin-5-amine and its metabolites” (J Med Chem, 1997).

Legend:
[1] = molecular target: T1, D(3) dopamine receptor (Homo sapiens, UniProt P35462)
[2] = test system: Mus musculus; assay: Hypothermic effects in mice when administered subcutaneously.; assay type: functional; conditions: sc
[3] = molecular target: T2, D(2) dopamine receptor (Homo sapiens, UniProt P14416)
[4] = molecular target: T3, 5-hydroxytryptamine receptor 1A (Homo sapiens, UniProt P08908)
T3 sequence (P08908 whole entry): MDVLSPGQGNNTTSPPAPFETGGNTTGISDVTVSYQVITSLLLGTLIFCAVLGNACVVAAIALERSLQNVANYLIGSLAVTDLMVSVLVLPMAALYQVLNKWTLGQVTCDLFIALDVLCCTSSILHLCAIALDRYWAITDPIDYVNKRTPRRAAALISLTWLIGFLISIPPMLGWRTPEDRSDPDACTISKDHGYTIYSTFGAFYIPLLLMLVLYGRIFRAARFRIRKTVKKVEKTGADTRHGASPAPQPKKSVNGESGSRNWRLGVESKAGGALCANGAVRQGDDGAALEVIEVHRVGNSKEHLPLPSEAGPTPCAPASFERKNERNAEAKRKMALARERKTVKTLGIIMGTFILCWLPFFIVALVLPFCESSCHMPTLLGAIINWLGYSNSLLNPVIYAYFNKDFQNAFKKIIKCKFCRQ

[5] = Metabolism of compound in human liver slices (male) ('++++' indicates largest observed peak); assay type: ADME, tissue-based
[6] = Metabolism of compound in monkey S9 microsomes ('+++'indicates 50-80% largest observed peak); assay type: ADME, Microsome; conditions: cercopithecidae
[7] = test system: Mus musculus; assay: Hypothermic effects in mice when administered orally.; assay type: functional; conditions: po
[8] = Metabolism of compound in rabbit S9 microsomes ('+''indicates <20% largest observed peak); assay type: ADME, Oryctolagus cuniculus, Microsome
[9] = species on record: Rattus norvegicus; assay: Metabolism of compound in rat S9 microsomes ('++++' indicates largest observed peak); assay type: ADME
[10] = species on record: Canis familiaris; assay: Metabolism of compound in dog S9 microsomes ('++++' indicates largest observed peak); assay type: ADME, Canis lupus familiaris
[11] = Metabolism of compound in human microsomes ('++++' indicates largest observed peak); assay type: ADME, Microsome
[12] = Metabolism of compound in mini pig S9 microsomes ('++++' indicates largest observed peak); assay type: ADME, Sus scrofa, Microsome
[13] = molecular target: T2, D(2) dopamine receptor; remark: listed apart in the source
Description: Binding affinity towards Dopamine receptor D2 by displacement of [3H]U-86170.

[14] = species on record: Mus musculus; assay: Metabolism of compound in Mouse S9 microsomes ('++++'indicates largest observed peak); assay type: ADME
[15] = molecular target: T1, D(3) dopamine receptor; remark: listed apart in the source
Description: Binding affinity towards Dopamine receptor D3 by displacement of [3H](+)-7-OH-DPAT.

[16] = species on record: Rattus norvegicus; assay: The stability relative to the U-93385 compound.
[17] = molecular target: T3, 5-hydroxytryptamine receptor 1A; remark: listed apart in the source
Description: Binding affinity towards Serotonin 5-hydroxytryptamine 1A receptor by displacement of [3H]-(+)-8-OH-DPAT.

[18] = Metabolism of compound in human microsomes ('+''indicates <20% largest observed peak); assay type: ADME, Microsome
[19] = species on record: Rattus norvegicus; assay: Metabolism of compound in rat S9 microsomes ('+''indicates <20% largest observed peak); assay type: ADME
[20] = Metabolism of compound in mini pig S9 microsomes ('+''indicates <20% largest observed peak); assay type: ADME, Sus scrofa, Microsome
[21] = species on record: Canis familiaris; assay: Metabolism of compound in dog S9 microsomes ('++''indicates 20-50% largest observed peak); assay type: ADME, Canis lupus familiaris
[22] = species on record: Mus musculus; assay: Metabolism of compound in mouse S9 microsomes ('+''indicates <20% largest observed peak); assay type: ADME
[23] = Metabolism of compound in human liver slices (male) ('++''indicates 20-50% largest observed peak); assay type: ADME, tissue-based
[24] = Metabolism of compound in monkey S9 microsomes ('++''indicates 20-50% largest observed peak); assay type: ADME, Microsome; conditions: cercopithecidae
[25] = Metabolism of compound in monkey S9 microsomes ('++++' indicates largest observed peak); assay type: ADME, Microsome; conditions: cercopithecidae
[26] = Metabolism of compound in rabbit S9 microsomes ('++++' indicates largest observed peak); assay type: ADME, Oryctolagus cuniculus, Microsome
[27] = species on record: Canis familiaris; assay: Metabolism of compound in dog S9 microsomes; Trace; assay type: ADME, Canis lupus familiaris
[28] = Metabolism of compound in human microsomes; Trace; assay type: ADME, Microsome
[29] = species on record: Mus musculus; assay: Metabolism of compound in mouse S9 microsomes ('++++' indicates largest observed peak); assay type: ADME
[30] = Metabolism of compound in human liver slices (male) ('+''indicates <20% largest observed peak); assay type: ADME, tissue-based
[31] = Metabolism of compound in monkey S9 microsomes ('+''indicates <20% largest observed peak); assay type: ADME, Microsome; conditions: cercopithecidae
[32] = species on record: Rattus norvegicus; assay: Metabolism of compound in rat S9 microsomes; Trace; assay type: ADME

T2 sequence (P14416 whole entry): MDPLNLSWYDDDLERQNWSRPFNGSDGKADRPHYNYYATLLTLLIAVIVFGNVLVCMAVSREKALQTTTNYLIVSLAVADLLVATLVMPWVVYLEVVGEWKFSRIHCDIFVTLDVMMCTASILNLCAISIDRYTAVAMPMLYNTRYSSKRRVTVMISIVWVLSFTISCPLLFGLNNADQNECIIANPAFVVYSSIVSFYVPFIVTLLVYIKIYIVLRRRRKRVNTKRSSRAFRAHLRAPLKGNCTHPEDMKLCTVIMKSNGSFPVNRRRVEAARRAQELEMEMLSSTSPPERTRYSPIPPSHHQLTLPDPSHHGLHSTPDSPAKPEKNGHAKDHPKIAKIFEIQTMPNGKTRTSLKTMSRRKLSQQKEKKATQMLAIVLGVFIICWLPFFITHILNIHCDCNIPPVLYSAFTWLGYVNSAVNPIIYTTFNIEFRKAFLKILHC
T1 sequence (P35462 whole entry): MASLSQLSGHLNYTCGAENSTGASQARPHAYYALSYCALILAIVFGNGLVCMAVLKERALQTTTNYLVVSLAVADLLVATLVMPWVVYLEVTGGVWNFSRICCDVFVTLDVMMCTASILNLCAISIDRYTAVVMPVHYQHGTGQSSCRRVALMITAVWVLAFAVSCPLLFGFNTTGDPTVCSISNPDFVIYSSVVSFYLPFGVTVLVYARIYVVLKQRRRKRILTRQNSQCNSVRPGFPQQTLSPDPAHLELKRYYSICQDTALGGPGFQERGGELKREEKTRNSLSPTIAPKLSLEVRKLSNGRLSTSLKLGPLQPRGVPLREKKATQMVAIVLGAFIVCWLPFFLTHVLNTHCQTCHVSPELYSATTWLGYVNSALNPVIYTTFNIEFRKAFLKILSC

SMILES: CN(C)[C@H]1Cc2cccc3ncn(c23)C1
- Ki [1]: Not Active
- ED50 [2]: 17.3 mg/kg
- Ki [3]: Not Active
- Ki [4]: Not Active

SMILES: CN[C@H]1Cc2cccc3nc(O)n(c23)C1
- Ki [1]: Not Active
- Ki [3]: Not Active
- Ki [4]: Not Active

SMILES: CN(C)[C@@H]1Cc2cccc3ncn(c23)C1
- Metabolism [5]: Partially active
- ED50 [2]: 0.073 mg/kg
- Metabolism [6]: Partially active
- ED50 [7]: 0.073 mg/kg
- Metabolism [8]: Partially active
- Metabolism [9]: Partially active
- Metabolism [10]: Partially active
- Metabolism [11]: Partially active
- Metabolism [12]: Partially active
- Ki [13]: 1280 nM
- Metabolism [14]: Partially active
- Ki [15]: 2950 nM
- Relative stability [16]: 1
- Ki [17]: > 3520 nM

SMILES: CN[C@@H]1Cc2cccc3ncn(c23)C1
- ED50 [2]: 0.31 mg/kg
- ED50 [7]: 0.73 mg/kg
- Metabolism [8]: Partially active
- Metabolism [18]: Partially active
- Metabolism [19]: Partially active
- Metabolism [20]: Partially active
- Metabolism [21]: Partially active
- Ki [13]: 355 nM
- Metabolism [22]: Partially active
- Metabolism [23]: Partially active
- Metabolism [24]: Partially active
- Ki [15]: 2460 nM
- Relative stability [16]: 0.86
- Ki [17]: > 3260 nM

SMILES: CN(C)[C@H]1Cc2cccc3nc(O)n(c23)C1
- Ki [1]: Not Active
- ED50 [2]: 17.3 mg/kg
- Ki [3]: Not Active
- Ki [4]: Not Active

SMILES: CN(C)[C@@H]1Cc2cccc3[nH]c(=O)n(c23)C1
- Metabolism [25]: Partially active
- Metabolism [26]: Partially active
- ED50 [2]: 0.41 mg/kg
- ED50 [7]: 1.3 mg/kg
- Metabolism [19]: Partially active
- Metabolism [20]: Partially active
- Metabolism [27]: Partially active
- Metabolism [28]: Partially active
- Metabolism [29]: Partially active
- Ki [13]: 12 nM
- Metabolism [23]: Partially active
- Ki [15]: 1930 nM

SMILES: CCCN[C@@H]1Cc2cccc3nc(O)n(c23)C1
- ED50 [2]: 0.01 mg/kg
- ED50 [7]: 0.41 mg/kg
- Ki [15]: 36 nM

SMILES: CC(C)C[C@H]1C(=O)N2CCC[C@H]2[C@]2(O)O[C@](NC(=O)[C@@H]3C=C4c5cccc6[nH]c(Br)c(c56)C[C@H]4N(C)C3)(C(C)C)C(=O)N12 [BROMOCRIPTINE]
- Ki [13]: 10 nM
- Ki [15]: 87 nM
- Ki [17]: 24 nM

SMILES: CCCN(CCC)CCc1cccc2c1CC(=O)N2 [ROPINIROLE]
- Ki [13]: 7.2 nM
- Ki [17]: 1710 nM

SMILES: CN[C@@H]1Cc2cccc3[nH]c(=O)n(c23)C1 [SUMANIROLE]
- ED50 [2]: 0.73 mg/kg
- ED50 [7]: 0.41 mg/kg
- Metabolism [8]: Partially active
- Metabolism [30]: Partially active
- Metabolism [22]: Partially active
- Metabolism [31]: Partially active
- Metabolism [32]: Partially active
- Ki [15]: 2330 nM
- Ki [17]: 73 nM
